Measurements published in patent publication US9006394B2, “Peptide-presenting surfaces for long-term culture of pluripotent cells” (Wisconsin Alumni Research Foundation, priority 2008, dated 2015).
Ends that are not written are not given here.

Tests used:
[1] = Kyte & Doolittle; cited from earlier work
[2] = tested on: undifferentiated hESCs (Oct-4 positive) and differentiated cells derived from embryoid bodies (Oct-4 negative); assay: Effect of ROCK inhibitor on cellular adhesion; format: cell-based, human
Protocol: Effect of ROCK inhibitor on cellular adhesion: A mixture of undifferentiated hESCs (Oct-4 positive) and differentiated cells derived from embryoid bodies (Oct-4 negative) was seeded onto self-assembled monolayer surfaces presenting the GBP […] (SEQ ID NO: 1) and the integrin binding peptide KGRGDS (SEQ ID NO: 5). For some experiments, cells were seeded onto polyacrylamide gels or glass coverslips presenting the […] (SEQ ID NO: 47) peptide. The cells were grown for 24 hours in mTeSR medium containing 5 μM ROCK inhibitor Y-27632 and then switched to mTeSR medium without ROCK inhibitor for an additional 24 hours. The cells were fixed and stained for Oct-4 and counterstained with phalloidin and DAPI. In some instances, cells were added to the surfaces without ROCK inhibitor.

hESCs [3] = assay: Culture on other chemically defined surfaces (streptavidin plates, polyacrylamide gels, glass coverslips); format: cell-based, human
Text: Moreover, some hESCs were passaged to streptavidin-coated plates treated with biotinylated vitronectin GBP (SEQ ID NO:1) or polyacrylamide gels cross-linked to vitronectin GBP (SEQ ID NO:1).

hESCs [4] = assay: Flow cytometry of pluripotent cell-specific markers after three passages on SAMs; format: cell-based, human; conditions: for pluripotent cell-specific marker expression (Oct-4, SSEA-3, SSEA-4) after 3 passages: 3 passages on SAMs
Protocol: The density of the peptides on the surface varied from 0.5% to 25% (see, FIG. 1).
Regardless of the nature of the chemically defined surface or peptide(s) attached thereto, about 5×10^4 cells/ml were manually passaged to a fresh chemically defined surface every 5-7 days (i.e., at confluency) after treatment with an Enzyme-Free Cell Dissociation Buffer (Sigma; St. Louis, Mo.; a phosphate-buffered saline (PBS)+ethylenediamine tetraacetic acid (EDTA) 0.02% wt/vol) for 10-15 minutes. After three passages (about 21 days), the cells were evaluated for pluripotent cell-specific markers by flow cytometry.
hESCs were dissociated with 0.05% trypsin-EDTA with 2% chicken serum (Gibco). Cell surface marker staining was performed in PBS containing 2% BSA (wt/vol) at 4° C. for 30 minutes with directly conjugated antibodies against alkaline phosphatase (R&D Systems), Tra 1-60 (BD Biosciences), Tra 1-81 (BD Biosciences), SSEA-4 (BD Biosciences), SSEA-3 (BD Biosciences), SSEA-1 (R&D Systems) followed by a 30 minute fixation with 2% formaldehyde/PBS at room temperature.
For intracellular marker staining, hESCs were fixed with 2% formaldehyde/PBS at room temperature for 30 minutes. For Oct-4 staining, cells were permeabilized with saponin permeabilization buffer (SPB; 0.1% saponin, 0.1% BSA wt/vol in PBS) for 30 minutes at room temperature followed by incubation with an Oct-4 PE-conjugated antibody overnight. Cells were then washed 2 times with SPB before analysis.
Flow cytometry data was obtained using a FACSCalibur™ (BD Biosciences) and analyzed using FlowJo Software (Tree Star, Inc.; Ashland, Oreg.). The percentage of positive cells was established by comparing experimental cells to partially differentiated hESCs. Gating for positive and negative populations was established by analyzing the bimodal peaks of partially differentiated hESCs.

pluripotent stem cells = assay: Number of cell divisions by fluorescent cell staining; format: cell-based, human
[5] = tested on: hES cells (H9 and H13) and vector-free iPS cells (DF19-9); assay: Cell growth over two passages (Cell Counting Kit-8); format: cell-based, human
Protocol: hESCs (H9) were cultured on Matrigel, vitronectin, polylysine, […] (SEQ ID NO: 1), or KGRGDS (SEQ ID NO: 5) over two passages in mTeSR media supplemented with 5 μm ROCK inhibitor. Cell counts were calculated at each time point using Cell Counting Kit-8 (Dojindo Molecular Technologies, Inc., Rockville, Md.).

human ESCs (H9) = assay: Cell adhesion (CellTiter-Glo) with soluble heparin or chondroitinase ABC; format: cell-based; conditions: 1 hour; for hESC binding in the presence of soluble heparin: soluble heparin 0.5 mg/mL
Protocol: To determine the effect of a soluble GAG on hESC binding to GBPs, hESCs were plated onto Matrigel-coated surfaces, vitronectin-coated surfaces, or surfaces presenting the heparin-binding peptide […] (SEQ ID NO: 1) in the presence or absence of soluble heparin (0.5 mg/mL). After 1 hour, the surfaces were washed and the cells lysed. The cell lysates were used to determine approximate cell numbers using Cell Titer Glo (Promega). The ratio of the mean luminescence of the cell lysates of cells plated in the presence of heparin versus those without heparin was expressed as percent cell binding for each surface.
To determine if glycosaminoglycans (GAGs) are required for GBP binding, human ESCs (H9) cultured on Matrigel were dissociated using an enzyme-free, Hanks'-based cell dissociation buffer (Sigma) for 10-15 minutes. Cells were resuspended in DMEM/F12 (Gibco), or DMEM/F12 supplemented with 2 units/mL chondroitinase ABC (Sigma), or 500 ug/mL heparin (Sigma). Cells treated with the GAG-degrading enzymes were incubated for 1 hour in suspension at 37° C. Cell suspensions were seeded onto Matrigel-coated surfaces, recombinant vitronectin-coated surfaces (10 μg/mL, R&D Systems), or SAMs presenting the peptide […] (SEQ ID NO: 1) at a 5% surface density. After 1 hour, surfaces were washed 3 times with PBS and the cells were lysed with M-PER buffer (Thermo Fisher Scientific, Inc., Rockford, Ill.). The cell lysate was mixed with CellTiter-Glo (Promega) to determine the number of viable cells in culture based on the presence of ATP. The luminescence was measured on 20/20^n luminometer (Turner Biosystems, Inc., Sunnyvale Calif.). • Cell Growth: […]

hESCs [6] = assay: Initial cell survival on SAMs with heregulin supplement; format: cell-based, human; conditions: 10 ng/ml in mTeSR1
Protocol: hESCs were passaged to SAMs of peptide-AT conjugates on gold in mTeSR™1 optionally supplemented with 10 ng/ml heregulin-β1 (Peprotech; Rocky Hill, N.J.) and 5 μM Y-27632 (Calbiochem; San Diego, Calif.). […] Some surfaces presented peptide-AT conjugates of only vitronectin GBP (SEQ ID NO:1), fibronectin GBP (SEQ ID NO:2) or bone sialoprotein GBP (SEQ ID NO:3) Alternatively, some surfaces presented peptide-AT conjugates of only the integrin-binding peptide (SEQ ID NO:5), another bioactive peptide derived from fibronectin (SEQ ID NO:6), the FGF receptor binding peptide (SEQ ID NO:4), the laminin-derived bioactive peptide (SEQ ID NO:7), […] (SEQ ID NO: 8) or […] (SEQ ID NO: 9). Furthermore, some surfaces presented separate peptide-AT conjugates of the integrin-binding peptide (SEQ ID NO:5) and FGF receptor binding peptide (SEQ ID NO:4); the integrin-binding peptide (SEQ ID NO:5) and vitronectin GBP (SEQ ID NO:1); the integrin-binding peptide (SEQ ID NO:5) and bioactive peptide derived from fibronectin (SEQ ID NO:6); and the vitronectin GBP (SEQ ID NO:1) and […] (SEQ ID NO: 9). The density of the peptides on the surface varied from 0.5% to 25% (see, FIG. 1).

[7] = 24 hours with 5 μM, then 24 hours without

For C[C@H](N)C(=O)O [A, alanine], the Hydropathy index [1] is given as 1.8.

For N[C@@H](CS)C(=O)O [C], the Hydropathy index [1] is given as 2.5.

In the case of N[C@@H](CC(=O)O)C(=O)O [D], the Hydropathy index [1] is listed as −3.5.

In the case of N[C@@H](CCC(=O)O)C(=O)O [E], the Hydropathy index [1] is given as −3.5.

In the case of N[C@@H](Cc1ccccc1)C(=O)O [F, phenalalanine], the Hydropathy index [1] is given as 2.8.

In the case of N[C@@H](Cc1c[nH]cn1)C(=O)O [H, histidine], the Hydropathy index [1] is listed as −3.2.

In the case of CC[C@H](C)[C@H](N)C(=O)O [I, isoleucine], the Hydropathy index [1] is listed as 4.5.

In the case of NCCCC[C@H](N)C(=O)O [K, lysine], the Hydropathy index [1] is listed as −3.9.

For CSCC[C@H](N)C(=O)O [M, methionine], the Hydropathy index [1] is given as 1.9.

In the case of NC(=O)C[C@H](N)C(=O)O [N], the Hydropathy index [1] is listed as −3.5.

In the case of N=C(N)NCCC[C@H](N)C(=O)O [R, arginine], the Hydropathy index [1] is given as −4.5.

In the case of C[C@@H](N)[C@H]1CC[C@H](C(=O)Nc2ccncc2)CC1.Cl.Cl [ROCK inhibitor, (+)-(R)-trans-4-(1-aminoethyl)-N-(4-pyridyl)cyclohexanecarboxamide dihydrochloride], the “attachment of differentiated cells after removal of ROCK inhibitor” value [2, 7] is reported as “remained attached and viable”, the “attachment of undifferentiated cells after removal of the ROCK inhibitor” value [2, 7] is reported as “significant detachment” and the “Oct-4 positive undifferentiated cells among adherent cells when seeded without the ROCK inhibitor” value ([2]; cells added to the surfaces without ROCK inhibitor) is reported as “few of these cells were Oct-4 positive”.

In the case of N[C@@H](CO)C(=O)O [S], the Hydropathy index [1] is listed as −0.8.

In the case of C[C@@H](O)[C@H](N)C(=O)O [T], the Hydropathy index [1] is listed as −0.7.

In the case of CC(C)[C@H](N)C(=O)O [V, valine], the Hydropathy index [1] is given as 4.2.

In the case of N[C@@H](Cc1c[nH]c2ccccc12)C(=O)O [W], the Hydropathy index [1] is listed as −0.9.

In the case of N[C@@H](Cc1ccc(O)cc1)C(=O)O [Y], the Hydropathy index [1] is listed as −1.3.

With “CGKKQRFRHRNRKG (not fully specified (C-terminus); also: conjugated to polyacrylamide or glass; listed as Homo sapiens) [peptide conjugated to polyacrylamide gels or glass coverslips]” the “cell adhesion and growth on non-SAM substrate” value (hESCs [3]; compared with SAMs) was “supported cell adhesion and growth comparable to SAMs”.

With “KGRGDS (not fully specified (C-terminus); listed as Homo sapiens)” the support of self-renewal (hESCs [4]; 3 passages) was “insufficient to support self-renewal”, the “pluripotent cell-specific marker expression (Oct-4, SSEA-3, SSEA-4) after 3 passages” value (hESCs [4]) was “significantly lower levels of pluripotent cell-specific markers” and the “pluripotent cell-specific marker expression (Oct-4, SSEA-3, SSEA-4) after 3 passages” value (hESCs [4]; listed as RGD-presenting surfaces) was “fewer cells in the population displayed markers of pluripotency”. The “cell growth rate on surface” value (hESCs [4]; compared with GAG-binding peptide surfaces) was “much more slowly”, the “number of cell divisions” value (pluripotent stem cells) was “fewer cell divisions” and the “plating efficiency after 24 hours” value [5] was “lowest plating efficiency”.

With “biotinylated SEQ ID NO:1: streptavidin-coated plates treated with biotinylated vitronectin GBP (SEQ ID NO:1) (GKKQRFRHRNRKG; not fully specified (C-terminus); also: biotinylated, site not given here; listed as Homo sapiens)” the “cell adhesion and growth on non-SAM substrate” value (hESCs [3]; compared with SAMs) was “supported cell adhesion and growth, although not to the same extent”, the “cell death when ROCK inhibitor is omitted” value (hESCs [3]; streptavidin-coated plates) was “without observable increase in cell death” and the colony spreading (hESCs [3]; streptavidin-coated plates, compared with SAMs) was “lower than on SAMs”.

For heparin [reference compound], the “hESC binding in the presence of soluble heparin” value (human ESCs (H9)) was “inhibited adhesion”.

With heregulin the initial cell survival (hESCs [6]) was “modest improvement”.

With “vitronectin: recombinant vitronectin-coated surfaces (10 μg/mL, R&D Systems)” the “adhesion of cells treated with chondroitinase ABC” value (human ESCs (H9); 2 units/mL chondroitinase ABC, 5% surface density) was “maintained their ability to adhere”, the “hESC binding in the presence of soluble heparin” value (human ESCs (H9)) was “not” and the “number of cell divisions” value (pluripotent stem cells) was “fewer cell divisions”. The “plating efficiency after 24 hours” value [5] was “equivalent” and the “cell numbers after each passage” value ([5]; two passages, mTeSR with ROCK inhibitor) was “Increased cell numbers”.
